# Assay results reported in patent US8232271B2 (priority 2008, dated 2012).
# Tests used:
# [1] = molecular target: T1, HCV polymerase (NS5B570n-Con1) (Hepatitis C virus genotype 1b, UniProt Q9WMX2); experiment: HCV NS5B RNA polymerase activity assay; assay type: biochemical, HCV Con1 strain
# T1 construct: contains a 21 amino acid deletion at the C-terminus relative to the full-length HCV polymerase; 6-histidine (N); made in house; host or cells: E. coli BL21(DE) pLysS, plasmid pET17b
# Procedure: The enzymatic activity of HCV polymerase (NS5B570n-Con1) was measured as the incorporation of radiolabeled nucleotide monophosphates into acid insoluble RNA products. Unincorporated radiolabeled substrate was removed by filtration and scintillant was added to the washed and dried filter plate containing radiolabeled RNA product. The amount of RNA product generated by NS5B570-Con1 at the end of the reaction was directly proportional to the amount of light emitted by the scintillant.
# The N-terminal 6-histidine tagged HCV polymerase, derived from HCV Con1 strain, genotype 1b (NS5B570n-Con1) contains a 21 amino acid deletion at the C-terminus relative to the full-length HCV polymerase and was purified from E. coli strain BL21(DE) pLysS. The construct, containing the coding sequence of HCV NS5B Con1 (GenBank accession number AJ242654) was inserted into the plasmid construct pET17b, downstream of a T7 promoter expression cassette and transformed into E. coli. A single colony was grown overnight as a starter culture and later used inoculate 10 L of LB media supplemented with 100 μg/mL ampicillin at 37° C. Protein expression was induced by the addition of 0.25 mM isopropyl-β-D-thiogalactopyranoside (IPTG) when optical density at […] of the culture was between 0.6 and 0.8 and cells were harvested after 16 to 18 h at 30° C. NS5B570n-Con1 was purified to homogeneity using a three-step protocol including subsequent column chromatography on Ni-NTA, SP-Sepharose HP and Superdex 75 resins.
# Each 50 μl enzymatic reaction contained 20 nM RNA template derived from the complementary sequence of the Internal Ribosome Entry Site (cIRES), 20 nM NS5B570n-Con1 enzyme, 0.5 μCi of tritiated UTP (Perkin Elmer catalog no. TRK-412; specific activity: 30 to 60 Ci/mmol; stock solution concentration from 7.5×10^-5 M to 20.6×10^-6 M), 1 μM each ATP, CTP, and GTP, 40 mM Tris-HCl pH 8.0, 40 mM NaCl, 4 mM DTT (dithiothreitol), 4 mM MgCl2, and 5 μl of compound serial diluted in DMSO. Reaction mixtures were assembled in 96-well filter plates (cat #MADVN0B, Millipore Co.) and incubated for 2 h at 30° C. Reactions were stopped by addition of 10% final (v/v) trichloroacetic acid and incubated for 40 min at 4° C. Reactions were filtered, washed with 8 reaction volumes of 10% (v/v) trichloroacetic acetic acid, 4 reaction volumes of 70% (v/v) ethanol, air dried, and 25 μl of scintillant (Microscint 20, Perkin-Elmer) was added to each reaction well.
# The amount of light emitted from the scintillant was converted to counts per minute (CPM) on a Topcount® plate reader (Perkin-Elmer, Energy Range: Low, Efficiency Mode: Normal, Count Time: 1 min, Background Subtract: none, Cross talk reduction: Off).
# Data was analyzed in Excel® (Microsoft®) and ActivityBase® (Idbs®). The reaction in the absence of enzyme was used to determine the background signal, which was subtracted from the enzymatic reactions. Positive control reactions were performed in the absence of compound, from which the background corrected activity was set as 100% polymerase activity. All data was expressed as a percentage of the positive control. The compound concentration at which the enzyme-catalyzed rate of RNA synthesis was reduced by 50% (IC50) was calculated by fitting
# [formula] equation (i) to the data. where “Y” corresponds to the relative enzyme activity (in %), “% Min” is the residual relative activity at saturating compound concentration, “% Max” is the relative maximum enzymatic activity, “X” corresponds to the compound concentration, and “S” is the Hill coefficient (or slope).
Compound,IC50 [1] [nM],melting point [°C]
"COc1cc(Cn2c(=O)n(C)c3ccccc32)c(-c2ccc[nH]c2=O)cc1C(C)(C)C [Compound I-69, 1-[4-tert-Butyl-5-methoxy-2-(2-oxo-1,2-dihydro-pyridin-3-yl)-benzyl]-3-methyl-1,3-dihydro-benzoimidazol-2-one]",34,140 to 142
COc1cc(C(=O)N2CCC(CO)C2)c(-c2ccc[nH]c2=O)cc1C(C)(C)C (stereo not shown) [Compound I-73],1610,201 to 203
COc1cc(CN2CCN(C(=O)OC(C)(C)C)S2(=O)=O)c(-c2ccc[nH]c2=O)cc1C(C)(C)C [Compound I-61],319,125 to 127
"COc1cc(CCNS(C)(=O)=O)c(-c2ccc[nH]c2=O)cc1C(C)(C)C [Compound I-17, N-{2-[4-tert-butyl-5-methoxy-2-(2-oxo-1,2-dihydro-pyridin-3-yl)-phenyl]-ethyl}-methanesulfonamide]",280,219.3 to 222.4
COc1cc(C(=O)N(C)Cc2ccncc2)c(-c2ccc[nH]c2=O)cc1C(C)(C)C [Compound I-58],1140,199 to 201
COCCN1CCN(C(=O)c2cc(OC)c(C(C)(C)C)cc2-c2ccc[nH]c2=O)CC1 [Compound I-67],3690,179 to 181
"COc1cc(CNS(C)(=O)=O)c(-c2ccc(C)[nH]c2=O)cc1C(C)(C)C [Compound I-37, N-[4-tert-Butyl-5-methoxy-2-(6-methyl-2-oxo-1,2-dihydro-pyridin-3-yl)-benzyl]-methanesulfonamide]",146,120 to 125
COc1cc(CN(C(C)C)S(C)(=O)=O)c(-c2ccc[nH]c2=O)cc1C(C)(C)C [Compound I-28],33,285 to 286
CCC1(CC)C(=O)C=CN(Cc2cc(OC)c(C(C)(C)C)cc2-c2ccc[nH]c2=O)C1=O [Compound I-39],159,282 to 284
"CCOC(=O)c1cc(OC)c(C(C)(C)C)cc1-c1ccc[nH]c1=O [Compound I-54, 4-tert-Butyl-5-methoxy-2-(2-oxo-1,2-dihydro-pyridin-3-yl)-benzoic acid ethyl ester]",39,214 to 215
"CC(C)(C)c1ccc(NS(C)(=O)=O)c(-c2ccc[nH]c2=O)c1 [Compound I-6, N-[4-tert-Butyl-2-(2-oxo-1,2-dihydro-pyridin-3-yl)-phenyl]-methane sulfonamide]",3850,219.3 to 233.8
COc1cc(C(=O)N(C)C)c(-c2ccc[nH]c2=O)cc1C(C)(C)C [Compound I-41],1680,208 to 210
COc1cc(CN2CCCCC2=O)c(-c2ccc[nH]c2=O)cc1C(C)(C)C [Compound I-23],52,224.6 to 228.9
"COc1cc(CN(C)C(=O)c2cccc(NS(C)(=O)=O)c2)c(-c2ccc[nH]c2=O)cc1C(C)(C)C [Compound I-65, N-[4-tert-Butyl-5-methoxy-2-(2-oxo-1,2-dihydro-pyridin-3-yl)-benzyl]-3-methanesulfonylamino-N-methyl-benzamide]",13,170 to 172
"COc1cc(CN2C(=O)CC[C@H]2CO)c(-c2ccc[nH]c2=O)cc1C(C)(C)C [Compound I-72, 3-[5-tert-Butyl-2-((S)-2-hydroxymethyl-5-oxo-pyrrolidin-1-ylmethyl)-4-methoxy-phenyl]-1H-pyridin-2-one]",77,146 to 148
COc1cc(CNC(=O)C2CCCC(NS(C)(=O)=O)C2)c(-c2ccc[nH]c2=O)cc1C(C)(C)C (stereo not shown) [Compound I-82],30,162 to 164

Compound,IC50 [1] [nM],melting point [°C]
COc1cc(CN2C(=O)CC[C@@H]2CO)c(-c2ccc[nH]c2=O)cc1C(C)(C)C [Compound I-83],146,150 to 152
"COc1cc(CN2C(=O)c3ccccc3C2=O)c(-c2ccc[nH]c2=O)cc1C(C)(C)C [Compound I-33, 2-[4-tert-Butyl-5-methoxy-2-(2-oxo-1,2-dihydro-pyridin-3-yl)-benzyl]-isoindole-1,3-dione]",35,277 to 280
COc1cc(CN2C(=O)CC(C)(C)CC2=O)c(-c2ccc[nH]c2=O)cc1C(C)(C)C [Compound I-88],52,> 300
"CCOC(=O)[C@H]1CCC(=O)N1Cc1cc(OC)c(C(C)(C)C)cc1-c1ccc[nH]c1=O [Compound I-70, (R)-1-[4-tert-Butyl-5-methoxy-2-(2-oxo-1,2-dihydro-pyridin-3-yl)-benzyl]-5-oxo-pyrrolidine-2-carboxylic acid ethyl ester]",70,92 to 95
COc1cc(C(=O)N2CCN(C(C)=O)CC2)c(-c2ccc[nH]c2=O)cc1C(C)(C)C [Compound I-46],615,206 to 208
COc1cc(C(=O)N2CCOCC2)c(-c2ccc[nH]c2=O)cc1C(C)(C)C [Compound I-40],533,208 to 210
COc1cc(CN2CCCCS2(=O)=O)c(-c2ccc[nH]c2=O)cc1C(C)(C)C [Compound I-16],35,225.8 to 226.1
COc1cc(C#N)c(-c2ccc[nH]c2=O)cc1C(C)(C)C [Compound I-91],374,247 to 249
"COc1cc(C(C)NS(C)(=O)=O)c(-c2ccc[nH]c2=O)cc1C(C)(C)C (stereo not shown) [Compound I-52, N-{1-[4-tert-butyl-5-methoxy-2-(2-oxo-1,2-dihydro-pyridin-3-yl)-phenyl]-ethyl}-methanesulfonamide]",654,284 to 286
"COc1cc(CN2C(=O)CC[C@@H]2C(=O)O)c(-c2ccc[nH]c2=O)cc1C(C)(C)C [Compound I-71, (R)-1-[4-tert-Butyl-5-methoxy-2-(2-oxo-1,2-dihydro-pyridin-3-yl)-benzyl]-5-oxo-pyrrolidine-2-carboxylic acid]",36,199 to 200
"COc1cc(CNC(=O)c2ccc(N)cc2)c(-c2ccc[nH]c2=O)cc1C(C)(C)C [Compound I-42, 4-Amino-N-[4-tert-butyl-5-methoxy-2-(2-oxo-1,2-dihydro-pyridin-3-yl)-benzyl]-benzamide]",36,165 to 167
COc1cc(C(=O)N2CCS(=O)(=O)CC2)c(-c2ccc[nH]c2=O)cc1C(C)(C)C [Compound I-51],552,252 to 254
COCCN(C)C(=O)c1cc(OC)c(C(C)(C)C)cc1-c1ccc[nH]c1=O [Compound I-47],1510,160 to 162
CCN(Cc1cc(OC)c(C(C)(C)C)cc1-c1ccc[nH]c1=O)S(C)(=O)=O [Compound I-27],44,245 to 246
"COc1cc(CN2CCNS2(=O)=O)c(-c2ccc[nH]c2=O)cc1C(C)(C)C [Compound I-60, 3-[5-tert-Butyl-2-(1,1-dioxo-1λ^6-[1,2,5]thiadiazolidin-2-ylmethyl)-4-methoxy-phenyl]-1H-pyridin-2-on]",23,230 to 231
"CC(=O)Nc1ccc(C(C)(C)C)cc1-c1ccc[nH]c1=O [Compound I-8, N-[4-tert-butyl-2-(2-oxo-1,2-dihydro-pyridin-3-yl)-phenyl]-acetamide]",8560,259 to 260
